For experiment [1], the target named is T1, Histone-lysine N-methyltransferase SMYD3 (Homo sapiens) (UniProt Q9H7B4).
T1 sequence (whole entry): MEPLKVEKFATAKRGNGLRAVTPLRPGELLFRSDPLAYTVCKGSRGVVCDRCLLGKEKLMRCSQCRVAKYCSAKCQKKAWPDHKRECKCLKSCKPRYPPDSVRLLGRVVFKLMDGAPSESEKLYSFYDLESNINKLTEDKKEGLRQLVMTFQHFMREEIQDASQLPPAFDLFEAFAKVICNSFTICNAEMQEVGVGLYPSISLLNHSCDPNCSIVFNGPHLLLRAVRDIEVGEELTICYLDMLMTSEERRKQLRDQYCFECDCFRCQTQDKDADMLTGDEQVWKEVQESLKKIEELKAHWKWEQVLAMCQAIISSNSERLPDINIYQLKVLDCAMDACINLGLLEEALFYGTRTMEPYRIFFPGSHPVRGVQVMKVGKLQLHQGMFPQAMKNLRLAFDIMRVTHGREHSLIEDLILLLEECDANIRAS
As to the kind of experiment: Selectivity interaction (Methyltransferase screen (Scintillation proximity assays)) EUB0000255b SMYD3. On the technique in general: In a scintillation proximity assay essentially only radioactivity close to the scintillant gives light.

Experiment [2] concerns the target Citron Rho-interacting kinase (Homo sapiens) (UniProt O14578). As to the kind of experiment: Selectivity interaction (KinomeScan (DiscoverX)) EUB0000595a CIT. The note with it: at 10 µM.
Experiment [3] concerns the target Serine/threonine-protein kinase 38-like (Homo sapiens) (UniProt Q9Y2H1). As to the kind of experiment: Selectivity interaction (ActivX KiNativ screen (ex vivo kinase selectivity in human PBMCs)) EUB0001619a STK38L. The experiment is classed as cell-based. The settings on record: PBMC, at 1 µM.
Experiment [4] has as its target Interferon-induced, double-stranded RNA-activated protein kinase (Homo sapiens) (UniProt P19525). As to the kind of experiment: Selectivity interaction (ActivX KiNativ screen (ex vivo kinase selectivity in human PBMCs)) EUB0001619a EIF2AK2. The experiment is classed as cell-based. The settings on record: PBMC, at 1 µM.
The target of experiment [5] is T2, Cyclin-dependent kinase 11A (Homo sapiens) (UniProt Q9UQ88).
T2 sequence (whole entry): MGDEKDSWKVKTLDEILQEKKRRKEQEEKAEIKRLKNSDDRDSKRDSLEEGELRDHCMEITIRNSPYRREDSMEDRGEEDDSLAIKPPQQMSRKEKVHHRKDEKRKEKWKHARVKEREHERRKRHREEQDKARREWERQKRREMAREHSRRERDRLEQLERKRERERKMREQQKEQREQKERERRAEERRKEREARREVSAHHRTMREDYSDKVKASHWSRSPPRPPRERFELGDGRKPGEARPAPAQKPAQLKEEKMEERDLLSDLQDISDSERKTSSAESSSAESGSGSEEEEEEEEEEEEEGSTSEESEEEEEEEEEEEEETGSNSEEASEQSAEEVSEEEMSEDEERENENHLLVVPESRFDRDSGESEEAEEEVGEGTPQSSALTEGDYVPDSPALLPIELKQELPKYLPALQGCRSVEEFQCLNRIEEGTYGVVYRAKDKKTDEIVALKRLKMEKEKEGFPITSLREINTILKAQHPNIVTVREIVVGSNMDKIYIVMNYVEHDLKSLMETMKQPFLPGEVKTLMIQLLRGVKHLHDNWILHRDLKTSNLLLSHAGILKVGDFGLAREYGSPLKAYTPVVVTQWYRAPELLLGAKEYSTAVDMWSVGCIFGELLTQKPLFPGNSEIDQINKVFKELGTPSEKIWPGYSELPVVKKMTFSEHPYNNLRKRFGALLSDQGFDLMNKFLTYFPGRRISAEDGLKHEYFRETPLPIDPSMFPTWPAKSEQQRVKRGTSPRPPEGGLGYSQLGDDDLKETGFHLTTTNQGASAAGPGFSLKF
As to the kind of experiment: Selectivity interaction (KinomeScan (DiscoverX)) EUB0000607a CDK11A. The note with it: at 10 µM.

Experiment [6] addresses Casein kinase I isoform delta (Homo sapiens, UniProt P48730). As to the kind of experiment: Selectivity interaction (KinomeScan (DiscoverX)) EUB0000607a CSNK1D. The note with it: at 10 µM.
For experiment [7], the target named is T3, SNF-related serine/threonine-protein kinase (Homo sapiens) (UniProt Q9NRH2).
T3 sequence (whole entry): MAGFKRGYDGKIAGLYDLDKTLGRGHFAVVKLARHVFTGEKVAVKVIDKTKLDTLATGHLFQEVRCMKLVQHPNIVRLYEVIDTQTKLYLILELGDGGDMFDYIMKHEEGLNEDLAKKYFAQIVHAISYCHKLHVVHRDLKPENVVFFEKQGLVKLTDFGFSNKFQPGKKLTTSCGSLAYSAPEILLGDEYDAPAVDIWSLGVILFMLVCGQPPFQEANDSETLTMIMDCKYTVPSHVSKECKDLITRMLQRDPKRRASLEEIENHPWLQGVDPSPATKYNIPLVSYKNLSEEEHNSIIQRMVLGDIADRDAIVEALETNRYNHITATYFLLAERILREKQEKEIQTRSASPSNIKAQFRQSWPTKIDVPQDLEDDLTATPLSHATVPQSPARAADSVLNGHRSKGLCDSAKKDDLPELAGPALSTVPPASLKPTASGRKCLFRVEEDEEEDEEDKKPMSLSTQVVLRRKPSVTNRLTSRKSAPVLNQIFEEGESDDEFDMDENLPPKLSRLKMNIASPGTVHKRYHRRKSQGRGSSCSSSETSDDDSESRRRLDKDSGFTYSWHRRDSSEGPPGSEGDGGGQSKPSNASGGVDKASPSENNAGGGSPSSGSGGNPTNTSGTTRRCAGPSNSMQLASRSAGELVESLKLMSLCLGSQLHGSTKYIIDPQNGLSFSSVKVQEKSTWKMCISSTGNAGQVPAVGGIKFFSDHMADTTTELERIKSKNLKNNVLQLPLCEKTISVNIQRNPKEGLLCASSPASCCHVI
As to the kind of experiment: Selectivity interaction (KinomeScan (DiscoverX)) EUB0000607a SNRK. The note with it: at 10 µM.

The target of experiment [8] is Tyrosine-protein kinase ABL1 (Homo sapiens, UniProt P00519). As to the kind of experiment: Selectivity interaction (Kinase panel (Enzyme activity assay)) EUB0000612a ABL1.
Experiment [9] has as its target Calcium/calmodulin-dependent protein kinase kinase 1 (Homo sapiens) (UniProt Q8N5S9). As to the kind of experiment: Selectivity interaction (KinomeScan (DiscoverX)) EUB0000092b CAMKK1. The note with it: at 10 µM.

The source of these data is ChEMBL document CHEMBL5465560, “Selectivity Literature for EUbOPEN Chemogenomic Library” (2024).

Some results are limits rather than exact numbers.

Interferon-induced, double-stranded RNA-activated protein kinase (Homo sapiens), sequence (P19525 whole entry): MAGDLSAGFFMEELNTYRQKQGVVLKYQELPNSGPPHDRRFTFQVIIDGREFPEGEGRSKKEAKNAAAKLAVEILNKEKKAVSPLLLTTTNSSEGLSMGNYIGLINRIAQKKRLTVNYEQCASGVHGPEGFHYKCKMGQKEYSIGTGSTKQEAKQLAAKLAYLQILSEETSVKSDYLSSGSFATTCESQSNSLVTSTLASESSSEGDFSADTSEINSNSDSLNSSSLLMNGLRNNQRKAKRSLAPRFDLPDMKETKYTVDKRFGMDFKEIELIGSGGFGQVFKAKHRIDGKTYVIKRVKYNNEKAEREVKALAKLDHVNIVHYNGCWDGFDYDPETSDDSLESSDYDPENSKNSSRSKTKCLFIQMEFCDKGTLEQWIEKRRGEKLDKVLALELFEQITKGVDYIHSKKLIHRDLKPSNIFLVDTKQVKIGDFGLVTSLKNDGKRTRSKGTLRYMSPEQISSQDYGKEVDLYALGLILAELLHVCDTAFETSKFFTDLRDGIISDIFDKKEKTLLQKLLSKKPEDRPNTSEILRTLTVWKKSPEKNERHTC
Tyrosine-protein kinase ABL1, sequence (P00519 whole entry): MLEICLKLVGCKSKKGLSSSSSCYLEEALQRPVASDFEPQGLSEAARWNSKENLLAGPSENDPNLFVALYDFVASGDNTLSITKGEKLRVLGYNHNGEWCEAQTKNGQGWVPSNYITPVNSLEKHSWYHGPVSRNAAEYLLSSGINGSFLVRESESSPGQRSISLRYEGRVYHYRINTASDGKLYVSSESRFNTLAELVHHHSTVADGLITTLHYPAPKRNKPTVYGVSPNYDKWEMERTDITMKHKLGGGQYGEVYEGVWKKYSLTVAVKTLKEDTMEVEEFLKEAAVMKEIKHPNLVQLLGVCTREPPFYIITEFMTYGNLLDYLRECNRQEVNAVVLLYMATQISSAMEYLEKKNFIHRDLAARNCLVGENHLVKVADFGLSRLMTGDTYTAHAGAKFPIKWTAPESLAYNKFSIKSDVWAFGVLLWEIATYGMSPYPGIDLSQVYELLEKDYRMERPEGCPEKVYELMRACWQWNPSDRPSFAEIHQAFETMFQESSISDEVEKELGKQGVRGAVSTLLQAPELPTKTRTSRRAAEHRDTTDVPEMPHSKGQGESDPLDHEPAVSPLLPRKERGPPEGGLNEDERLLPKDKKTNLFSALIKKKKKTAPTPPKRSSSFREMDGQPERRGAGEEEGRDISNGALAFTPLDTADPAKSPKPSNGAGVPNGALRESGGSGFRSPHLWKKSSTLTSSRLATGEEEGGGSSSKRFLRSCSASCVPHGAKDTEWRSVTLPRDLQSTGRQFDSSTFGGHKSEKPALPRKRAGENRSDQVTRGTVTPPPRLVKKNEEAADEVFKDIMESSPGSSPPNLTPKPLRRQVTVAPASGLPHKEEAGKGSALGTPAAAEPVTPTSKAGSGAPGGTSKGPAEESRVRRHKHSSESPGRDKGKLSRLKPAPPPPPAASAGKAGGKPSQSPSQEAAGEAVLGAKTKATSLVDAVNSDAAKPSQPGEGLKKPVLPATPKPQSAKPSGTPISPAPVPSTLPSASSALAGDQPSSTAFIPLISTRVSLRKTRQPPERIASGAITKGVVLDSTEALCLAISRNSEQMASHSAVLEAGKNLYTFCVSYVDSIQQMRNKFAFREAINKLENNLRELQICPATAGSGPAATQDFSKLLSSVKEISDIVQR
Casein kinase I isoform delta, sequence (P48730 whole entry, looked up, canonical isoform): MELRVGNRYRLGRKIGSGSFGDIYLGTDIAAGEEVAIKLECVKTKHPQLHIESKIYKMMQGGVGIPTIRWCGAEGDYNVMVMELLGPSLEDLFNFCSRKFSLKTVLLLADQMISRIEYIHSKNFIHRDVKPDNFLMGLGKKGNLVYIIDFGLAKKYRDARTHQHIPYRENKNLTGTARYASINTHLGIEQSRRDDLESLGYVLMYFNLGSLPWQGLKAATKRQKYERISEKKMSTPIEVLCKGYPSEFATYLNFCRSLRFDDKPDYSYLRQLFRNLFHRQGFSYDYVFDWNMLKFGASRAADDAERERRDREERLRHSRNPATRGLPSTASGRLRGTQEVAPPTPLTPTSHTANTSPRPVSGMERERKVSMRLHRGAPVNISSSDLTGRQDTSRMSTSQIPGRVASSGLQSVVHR
Citron Rho-interacting kinase (Homo sapiens), sequence (O14578 whole entry): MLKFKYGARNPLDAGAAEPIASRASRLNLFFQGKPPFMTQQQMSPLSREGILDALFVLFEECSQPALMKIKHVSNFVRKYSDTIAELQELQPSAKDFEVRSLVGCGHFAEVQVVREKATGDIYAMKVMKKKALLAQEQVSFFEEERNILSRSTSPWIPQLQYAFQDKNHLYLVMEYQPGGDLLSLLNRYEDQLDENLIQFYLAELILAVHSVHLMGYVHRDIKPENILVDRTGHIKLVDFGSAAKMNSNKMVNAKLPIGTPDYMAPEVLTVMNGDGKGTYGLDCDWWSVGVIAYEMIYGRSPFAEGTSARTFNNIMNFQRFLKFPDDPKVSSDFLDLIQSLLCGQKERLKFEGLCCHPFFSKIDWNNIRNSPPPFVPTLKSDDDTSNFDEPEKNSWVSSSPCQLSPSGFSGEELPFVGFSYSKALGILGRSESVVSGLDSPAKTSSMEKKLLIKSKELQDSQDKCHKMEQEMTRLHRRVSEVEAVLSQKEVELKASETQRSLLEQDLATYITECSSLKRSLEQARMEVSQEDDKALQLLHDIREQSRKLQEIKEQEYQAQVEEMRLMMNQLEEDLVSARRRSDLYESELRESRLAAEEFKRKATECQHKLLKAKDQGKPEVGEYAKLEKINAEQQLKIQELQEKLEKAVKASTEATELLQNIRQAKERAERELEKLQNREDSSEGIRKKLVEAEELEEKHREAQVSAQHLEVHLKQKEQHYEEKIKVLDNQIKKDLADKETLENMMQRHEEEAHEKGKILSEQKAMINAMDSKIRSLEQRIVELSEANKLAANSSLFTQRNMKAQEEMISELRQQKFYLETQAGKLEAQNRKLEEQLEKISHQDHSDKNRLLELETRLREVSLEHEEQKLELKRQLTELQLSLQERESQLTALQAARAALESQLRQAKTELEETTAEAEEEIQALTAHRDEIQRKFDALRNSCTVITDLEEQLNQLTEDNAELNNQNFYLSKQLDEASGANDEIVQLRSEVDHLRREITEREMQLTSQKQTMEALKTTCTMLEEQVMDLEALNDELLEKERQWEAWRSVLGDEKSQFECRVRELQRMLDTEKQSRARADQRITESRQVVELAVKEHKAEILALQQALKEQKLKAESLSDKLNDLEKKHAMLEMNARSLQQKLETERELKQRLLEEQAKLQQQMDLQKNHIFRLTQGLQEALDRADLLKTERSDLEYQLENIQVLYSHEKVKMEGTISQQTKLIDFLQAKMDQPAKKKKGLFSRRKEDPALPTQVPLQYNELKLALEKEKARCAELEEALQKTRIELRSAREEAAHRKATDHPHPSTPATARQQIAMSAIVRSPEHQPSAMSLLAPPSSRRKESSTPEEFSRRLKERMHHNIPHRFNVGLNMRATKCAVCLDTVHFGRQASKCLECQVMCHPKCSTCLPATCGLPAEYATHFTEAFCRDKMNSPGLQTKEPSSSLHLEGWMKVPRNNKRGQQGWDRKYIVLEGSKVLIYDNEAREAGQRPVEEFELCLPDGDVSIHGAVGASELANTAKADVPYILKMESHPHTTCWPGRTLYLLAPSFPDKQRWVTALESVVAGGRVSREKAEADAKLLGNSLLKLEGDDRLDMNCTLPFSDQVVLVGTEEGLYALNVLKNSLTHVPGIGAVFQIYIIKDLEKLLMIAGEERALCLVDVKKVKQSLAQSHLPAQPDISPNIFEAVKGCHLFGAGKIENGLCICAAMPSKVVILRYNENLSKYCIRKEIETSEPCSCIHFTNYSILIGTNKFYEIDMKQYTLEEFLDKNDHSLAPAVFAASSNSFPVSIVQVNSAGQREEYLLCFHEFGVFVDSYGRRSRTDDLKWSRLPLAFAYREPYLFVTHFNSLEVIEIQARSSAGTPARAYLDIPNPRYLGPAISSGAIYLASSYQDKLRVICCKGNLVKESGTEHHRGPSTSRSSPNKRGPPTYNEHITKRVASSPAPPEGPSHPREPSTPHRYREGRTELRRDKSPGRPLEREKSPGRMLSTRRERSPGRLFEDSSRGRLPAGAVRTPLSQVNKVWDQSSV
Serine/threonine-protein kinase 38-like (Homo sapiens), sequence (Q9Y2H1 2-464 limits assumed): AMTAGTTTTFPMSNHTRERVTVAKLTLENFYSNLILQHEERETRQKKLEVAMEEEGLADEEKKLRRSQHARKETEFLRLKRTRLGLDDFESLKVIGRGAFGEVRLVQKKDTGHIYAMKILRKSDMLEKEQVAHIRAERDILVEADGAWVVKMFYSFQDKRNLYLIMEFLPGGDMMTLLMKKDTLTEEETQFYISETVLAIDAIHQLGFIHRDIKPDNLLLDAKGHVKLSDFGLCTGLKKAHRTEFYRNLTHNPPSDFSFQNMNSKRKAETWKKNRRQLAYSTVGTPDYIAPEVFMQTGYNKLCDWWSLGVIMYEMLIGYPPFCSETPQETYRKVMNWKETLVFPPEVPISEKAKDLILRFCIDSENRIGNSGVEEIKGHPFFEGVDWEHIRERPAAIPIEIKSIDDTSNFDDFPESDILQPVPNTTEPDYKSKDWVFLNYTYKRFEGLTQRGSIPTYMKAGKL
Calcium/calmodulin-dependent protein kinase kinase 1 (Homo sapiens), sequence (Q8N5S9 whole entry, looked up): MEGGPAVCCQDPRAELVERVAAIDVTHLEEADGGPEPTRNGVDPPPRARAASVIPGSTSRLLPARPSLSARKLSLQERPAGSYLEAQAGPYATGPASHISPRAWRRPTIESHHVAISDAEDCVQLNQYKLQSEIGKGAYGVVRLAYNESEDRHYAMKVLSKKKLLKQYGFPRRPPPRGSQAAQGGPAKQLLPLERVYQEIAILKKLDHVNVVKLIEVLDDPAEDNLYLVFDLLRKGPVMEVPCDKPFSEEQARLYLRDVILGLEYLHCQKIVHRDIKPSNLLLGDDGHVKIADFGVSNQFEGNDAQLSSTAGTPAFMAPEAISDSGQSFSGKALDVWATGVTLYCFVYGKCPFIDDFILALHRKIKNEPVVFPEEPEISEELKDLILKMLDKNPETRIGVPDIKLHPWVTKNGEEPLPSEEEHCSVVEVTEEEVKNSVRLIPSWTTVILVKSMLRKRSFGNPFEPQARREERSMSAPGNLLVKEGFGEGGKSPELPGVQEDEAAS

With `COCCN1CCC(c2cc(CN(C)C(=O)c3cccc(Oc4ccccc4)c3)ccn2)CC1`, the figures for the % activity in experiment [1] (at 1 µM) and in experiment [1] (at 10 µM) were > 95% and 83%, respectively.

In [2], `COCC(=O)NC/C=C/c1ccc2ncnc(Nc3ccc(Oc4ccc(C)nc4)c(C)c3)c2c1` [CP-724714] had a % of control of 76%.

As for `N#Cc1cccc(-c2c[nH]c3ncnc(N4CCOCC4)c23)c1`, the % of inhibition in experiment [3] is 20%; in experiment [4], 12%.

Regarding `CNC(=O)Nc1ccc(-c2nc(N3CC4CCC(C3)O4)c3cnn(C4CCC5(CC4)OCCO5)c3n2)cc1`, the % of control in experiment [5] came out at 100%; in experiment [6], 92%; in [7], 100%.

Turning to `CCc1cccc(CC)c1NC(=O)c1nn(C)c2c1CCc1cnc(Nc3ccc(C(=O)NC4CCN(C)CC4)cc3OC(F)(F)F)nc1-2`, the half-maximal inhibitory concentration (IC50) in [8] was > 10 µM.

In the case of `CCC(=O)N1CCN(c2ccc(-n3c(=O)ccc4cnc5ccc(-c6cnc7ccccc7c6)cc5c43)cc2C(F)(F)F)CC1`, in [9], the % of control was determined as 80%.

What is called IC50 is the concentration at which inhibition is half-maximal.
